From US8273754B2, “Substituted 1H-pyrazolo[3,4-D]pyrimidine-6-amine compounds” (ArQule, Inc., priority 2008, dated 2012)
Like-named read-outs stand apart in the source and are kept apart here.

Legend:
cancer cells = assay: MTS cell growth inhibition assay (72 hours); assay type: cell-based
Summary of the method: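 Cells in DMEM with 1% FBS, seeded 18 h, then compound-treated 72 h at 37 °C. Viability by MTS/PMS for 4 h, formazan absorbance at 492 nm; IC50 taken as concentration giving 50% absorbance drop, activity banded by percent inhibition.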

FGFR2 (N549H) = biological target: T1, FGFR2 (N549H) (Homo sapiens, UniProt P21802, N549H); assay: fluorescent ELISA assay for inhibitors of FGFR2 kinase; assay type: biochemical; conditions: Pyk2 peptide substrate, 60 minutes
T1 construct: purchased Millipore 14-742
Procedure: The enzymatic assays described herein are conducted according to the following procedures from commercially available reagents. In one non-limiting example, a fluorescent ELISA assay is used to identify and characterize inhibitors of FGFR2 kinase as described herein. This heterogeneous assay utilizes a biotinylated peptide with a tyrosine motif as a substrate and an anti-phospho-tyrosine antibody to measure phosphorylation of the substrate. The reaction is initiated by adding the test compound, 37 μM Pyk2 substrate (Midwest Biotech, Cat. #MBT2383), 12.5 μM ATP (Roche, Cat. #11 140 965 001) and 0.5 μM FGFR2 enzyme (Millipore, Cat. #14-742) sequentially to a non-binding polypropylene V-well plate. All reagents are in an assay buffer consisting of: 50 mM Tris-HCL, 0.02 mg/ml BSA, 10 mM MgCl2, 0.1 mM Na3VO4, 1 mM EGTA, 75 μM ATP, 0.01% NP-40, 2 mM DTT and 10% glycerol. The reaction is incubated for 60 minutes. As the reaction proceeds, FGFR2 phosphorylates tyrosines in the peptide. The reaction mixture is then moved to a blocked streptavidin-coated Nunc Maxisorb plate (coated with 100 ng streptavidin from Pierce (Cat. #15-124) per well), allowing for the capture of the biotinylated peptide. Peptides are captured for 30 minutes at room temperature, the phosphorylation of peptides continues during this phase. The reaction is stopped by washing the streptavidin-coated plate 6 times with TBST. Phosphorylated peptide is detected by adding anti-phospho-tyrosine antibody (Cell Signaling, Cat. #9411, diluted 1:3000) to the streptavidin-coated plate. Unbound anti-phospho-tyrosine antibody is removed by washing the streptavidin-coated plate 6 times with TBST. Secondary detection is performed using alkaline phosphatase tagged goat anti-mouse antibody (Pierce, Cat. #31320, diluted 1:4000) for one hour. Unbound secondary antibody is removed by washing the streptavidin-coated plate 6 times with TBST. The fluorescent readout is initiated by adding to the streptavidin-coated plate Promega Attophos substrate (Promega, Cat. #S1000, dilution=6 mg/10 ml), which, when dephosphorylated by alkaline phosphatase, emits a fluorescent signal of 595 nm in wavelength when excited by a signal of 400 nm in wavelength. The reading of the 595 nm signal is done on the Perkin Elmer Envision system. Compounds which prevent FGFR2 from phosphorylating the peptide result in a lower fluorescent signal. The 595 nm fluorescent signal is directly proportional to the activity of FGFR2. Thus, the inhibition of FGFR2 by compounds is monitored by the decrease in the 595 nm fluorescent signal.

[1] = Homo sapiens, DLD-1, 72 h, DLD-1 cells, read-out: DLD-1 MTS 72 hr at 10 μM
[2] = Homo sapiens, KATO III, 72 h, KATO III cells, read-out: KATO III MTS 72 hr at 10 μM
[3] = Homo sapiens, MDA-MB-231, 72 h, MDA-MB-231 cells, read-out: MDA-MB-231 MTS 72 hr at 10 μM
[4] = Homo sapiens, NCI-H1299, 72 h, NCI-H1299 cells, read-out: NCI-H1299 MTS 72 hr at 10 μM
[5] = PaCa-2, 72 h, PACA-2 cells, read-out: PACA-2 MTS 72 hr at 10 μM

T1 sequence (P21802 22-821 N549H): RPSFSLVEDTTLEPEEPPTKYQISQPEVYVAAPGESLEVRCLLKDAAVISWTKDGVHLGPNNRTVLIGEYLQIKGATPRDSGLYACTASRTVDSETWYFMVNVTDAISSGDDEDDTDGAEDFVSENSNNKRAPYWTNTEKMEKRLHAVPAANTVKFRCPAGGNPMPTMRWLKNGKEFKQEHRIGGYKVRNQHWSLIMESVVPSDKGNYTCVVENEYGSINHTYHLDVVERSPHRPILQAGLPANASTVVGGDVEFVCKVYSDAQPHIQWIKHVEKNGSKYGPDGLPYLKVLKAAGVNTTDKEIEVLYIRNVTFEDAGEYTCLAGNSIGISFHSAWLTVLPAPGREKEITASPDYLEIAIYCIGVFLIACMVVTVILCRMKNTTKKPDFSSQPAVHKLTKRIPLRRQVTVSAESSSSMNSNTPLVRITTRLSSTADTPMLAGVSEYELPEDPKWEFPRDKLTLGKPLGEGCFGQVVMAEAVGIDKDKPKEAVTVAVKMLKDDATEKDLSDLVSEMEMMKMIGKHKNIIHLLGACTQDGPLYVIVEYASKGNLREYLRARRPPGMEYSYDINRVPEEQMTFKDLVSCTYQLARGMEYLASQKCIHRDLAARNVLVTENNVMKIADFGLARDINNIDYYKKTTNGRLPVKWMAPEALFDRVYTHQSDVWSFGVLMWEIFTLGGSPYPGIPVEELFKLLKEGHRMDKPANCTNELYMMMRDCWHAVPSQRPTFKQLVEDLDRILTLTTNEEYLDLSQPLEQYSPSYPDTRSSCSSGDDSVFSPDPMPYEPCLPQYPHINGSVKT

| SMILES | inhibition at 10 µM (cancer cells; [1]) [%] | inhibition at 10 µM (cancer cells; [2]) [%] | inhibition at 10 µM (cancer cells; [3]) [%] | inhibition at 10 µM (cancer cells; [4]) [%] | inhibition at 10 µM (cancer cells; [5]) [%] | IC50 (FGFR2 (N549H)) [nM] |
| --- | --- | --- | --- | --- | --- | --- |
| COc1cccc(CN2CC(Nc3nc(N)nc4[nH]ncc34)Cc3ccccc32)c1 (stereo not drawn) [Compound 127, N4-[1-(3-methoxybenzyl)-1,2,3,4-tetrahydroquinolin-3-yl]-1H-pyrazolo[3,4-d]pyrimidine-4,6-diamine] | < 50 | 50 to 79 | < 50 | < 50 | 50 to 79 | 11000 |
| Nc1nc(NC2Cc3ccccc3N(S(=O)(=O)c3cccs3)C2)c2cn[nH]c2n1 (stereo not drawn) [Compound 23, N4-(1-(thiophen-2-ylsulfonyl)-1,2,3,4-tetrahydroquinolin-3-yl)-1H-pyrazolo[3,4-d]pyrimidine-4,6-diamine] | < 50 | < 50 | < 50 | < 50 | < 50 | 2580 |
| Nc1nc(NC2Cc3ccccc3N(S(=O)(=O)c3ccc(F)cc3F)C2)c2cn[nH]c2n1 (stereo not drawn) [Compound 47, N4-(1-(2,4-difluorophenylsulfonyl)-1,2,3,4-tetrahydroquinolin-3-yl)-1H-pyrazolo[3,4-d]pyrimidine-4,6-diamine] | < 50 | < 50 | < 50 | < 50 | < 50 | 390 |
| Cc1ccccc1CN1CC(Nc2nc(N)nc3[nH]ncc23)Cc2ccccc21 (stereo not drawn) [Compound 129, N4-[1-(2-methylbenzyl)-1,2,3,4-tetrahydroquinolin-3-yl]-1H-pyrazolo[3,4-d]pyrimidine-4,6-diamine] | < 50 | 50 to 79 | < 50 | < 50 | < 50 | 16200 |
| Nc1nc(NC2Cc3ccccc3N(S(=O)(=O)c3ccc(NC(=O)Nc4ccc(Cl)c(C(F)(F)F)c4)cc3)C2)c2cn[nH]c2n1 (stereo not drawn) [Compound 222, 1-(4-(3-(6-amino-1H-pyrazolo[3,4-d]pyrimidin-4-ylamino)-3,4-dihydroquinolin-1(2H)-ylsulfonyl)phenyl)-3-(4-chloro-3-(trifluromethyl)phenyl)urea] | > 79 | > 79 | > 79 | > 79 | > 79 | > 300 |
| Nc1nc(NC2Cc3ccccc3N(S(=O)(=O)c3csc4ccccc34)C2)c2cn[nH]c2n1 (stereo not drawn) [Compound 51, N4-(1-(benzo[b]thiophen-3-ylsulfonyl)-1,2,3,4-tetrahydroquinolin-3-yl)-1H-pyrazolo[3,4-d]pyrimidine-4,6-diamine] | < 50 | 50 to 79 | < 50 | < 50 | 50 to 79 | 3850 |
| Nc1nc(NC2Cc3ccccc3N(S(=O)(=O)c3ccc(F)cc3Cl)C2)c2cn[nH]c2n1 (stereo not drawn) [Compound 53, N4-(1-(2-chloro-4-fluorophenylsulfonyl)-1,2,3,4-tetrahydroquinolin-3-yl)-1H-pyrazolo[3,4-d]pyrimidine-4,6-diamine] | < 50 | < 50 | < 50 | < 50 | < 50 | 410 |
| COc1ccc(CN2CC(Nc3nc(N)nc4[nH]ncc34)Cc3ccccc32)cc1OC (stereo not drawn) [Compound 123, N4-[1-(3,4-dimethoxybenzyl)-1,2,3,4-tetrahydroquinolin-3-yl]-1H-pyrazolo[3,4-d]pyrimidine-4,6-diamine] | < 50 | < 50 | < 50 | < 50 | < 50 | > 30000 |
| Nc1nc(NC2Cc3ccccc3N(Cc3cccc(Cl)c3)C2)c2cn[nH]c2n1 (stereo not drawn) [Compound 126, N4-[1-(3-chlorobenzyl)-1,2,3,4-tetrahydroquinolin-3-yl]-1H-pyrazolo[3,4-d]pyrimidine-4,6-diamine] | < 50 | 50 to 79 | < 50 | < 50 | 50 to 79 | 1190 |
